Assay results as given in patent US20240408096A1, “DOSING REGIMENS FOR ORAL ALK2 KINASE INHIBITORS” (BioCryst Pharmaceuticals, Inc., priority 2020, published 2024).

Assays:
[1] = biological target: T1, CYP2C8 (Homo sapiens, UniProt P10632); test: CYP inhibition in vitro; assay type: in vitro ADME
T1 sequence (P10632 1-490): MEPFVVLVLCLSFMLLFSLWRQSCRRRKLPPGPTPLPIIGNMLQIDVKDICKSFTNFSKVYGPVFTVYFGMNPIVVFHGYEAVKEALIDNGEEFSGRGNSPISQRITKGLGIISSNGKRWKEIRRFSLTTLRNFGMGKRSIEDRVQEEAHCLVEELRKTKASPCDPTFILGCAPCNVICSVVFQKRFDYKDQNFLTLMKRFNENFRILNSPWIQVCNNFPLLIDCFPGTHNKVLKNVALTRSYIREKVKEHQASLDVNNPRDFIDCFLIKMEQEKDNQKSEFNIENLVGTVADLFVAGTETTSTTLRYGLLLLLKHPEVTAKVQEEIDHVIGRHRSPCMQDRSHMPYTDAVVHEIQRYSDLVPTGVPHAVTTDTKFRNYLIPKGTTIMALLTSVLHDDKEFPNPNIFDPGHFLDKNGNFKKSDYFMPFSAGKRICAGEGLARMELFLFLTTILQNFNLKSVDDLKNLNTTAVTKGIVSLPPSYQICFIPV

[2] = biological target: CYP2C19 (Homo sapiens, UniProt P33261); test: CYP inhibition in vitro; assay type: in vitro ADME
[3] = rat micronucleus-comet genotoxicity assays; settings: in vivo
[4] = Phase 1 Parts 1 and 2 Holter ECG pharmacodynamics / exposure-response; assay type: in vivo, human
Method: ECGs were obtained according to the schedule in Tables 4 and 5 for Parts 1 and 2, respectively. A standard bedside 12-lead ECG machine or telemetry system that calculates HR and measures the PR, QRS, QT, RR, and QTc (QTcF) intervals was used. The acceptable deviations from the nominal ECG measurement time points were: re-dose: ≤2 hours before dosing; post dose: ±15 minutes from the nominal post-dose time point; and discharge: ±1 hour from the nominal time point.
Where possible, Holter-obtained and adjudicated ECGs were used to determine the change from baseline in mean differences in QTcF between each active treatment chosen to be analyzed relative to that obtained on subjects receiving placebo within a study part (for Part 2, within each cohort). At each time point Holter ECGs are analyzed, an individual subject's change from baseline will be calculated as:
Δik=(QTcF for subject I at time point k−Baseline QTcF), where QTcF measurements will be the average of triplicate ECGs at each time point. Baseline QTcF is the average of all pre-dose values.

[5] = Parts 1 and 2, model included placebo

CYP2C19, sequence (P33261 whole entry): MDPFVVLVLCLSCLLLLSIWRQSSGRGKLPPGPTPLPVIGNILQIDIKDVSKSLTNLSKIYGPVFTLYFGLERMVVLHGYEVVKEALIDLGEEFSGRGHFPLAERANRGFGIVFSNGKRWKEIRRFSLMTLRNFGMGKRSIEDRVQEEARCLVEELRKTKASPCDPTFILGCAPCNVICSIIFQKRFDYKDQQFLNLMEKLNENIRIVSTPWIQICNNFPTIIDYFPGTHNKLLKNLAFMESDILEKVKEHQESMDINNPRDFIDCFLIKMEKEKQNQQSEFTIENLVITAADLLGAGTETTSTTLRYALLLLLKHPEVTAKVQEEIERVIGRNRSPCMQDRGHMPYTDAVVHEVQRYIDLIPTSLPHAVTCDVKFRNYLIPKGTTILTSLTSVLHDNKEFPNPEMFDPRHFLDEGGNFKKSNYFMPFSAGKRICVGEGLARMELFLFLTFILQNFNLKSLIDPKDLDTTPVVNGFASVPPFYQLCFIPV

Compound: COc1cc(-n2cnc(Nc3nc(N4CCC[C@H]4C(N)=O)nc4sccc34)c2)cc(OC)c1OC.O=C(O)CC(O)(CC(=O)O)C(=O)O [Compound A]
- CYP2C8 inhibition [1]: is an inhibitor
- CYP2C19 inhibition [2]: is an inhibitor
- micronucleus-comet genotoxicity [3]: negative
- slope of ΔQTcF-concentration model ([4]; Parts 1 and 2): 0.0002
- ΔQTcF-concentration model fit line and confidence boundaries ([4]; Parts 1 and 2): below 10 msec
- slope of ΔHR-concentration model [4, 5]: 0.0004
- slope of ΔPR-concentration model [4, 5]: −0.0033
- slope of ΔQRS-concentration model [4, 5]: 0.0004
- model predicted HR changes ([4]; at all concentrations): < 1 bpm
- model predicted PR changes ([4]; at all concentrations): less than 2 msec
- effect on the ECG (12-lead Holter monitoring) ([4]; single doses up to 25 mg and multiple daily doses over 7 days up to 20 mg): absence of a clinically significant effect
